The text below walks through data of PubChem BioAssay AID398.

In this assay the target is 11-beta-hydroxysteroid dehydrogenase 1 (Homo sapiens) (UniProt P28845). In words: ligand binding to human 11beta-HSD1 – biophysical, DSF, SYPRO orange, purified protein (AID 398). The note with it: DSF thermal shift, protein 3 µM, buffer 10 mM HEPES, pH 7.5, NaCl 150 mM, stronger effect = higher value.
11-beta-hydroxysteroid dehydrogenase 1 (Homo sapiens), sequence (P28845 whole entry, looked up): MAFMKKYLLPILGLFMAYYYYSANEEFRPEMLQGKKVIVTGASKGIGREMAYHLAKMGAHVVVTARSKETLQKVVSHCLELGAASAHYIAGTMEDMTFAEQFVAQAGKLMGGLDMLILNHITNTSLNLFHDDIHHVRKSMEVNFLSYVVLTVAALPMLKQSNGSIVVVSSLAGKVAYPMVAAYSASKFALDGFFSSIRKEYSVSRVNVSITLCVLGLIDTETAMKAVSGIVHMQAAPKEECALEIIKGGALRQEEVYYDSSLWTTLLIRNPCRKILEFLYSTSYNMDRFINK

Turning to `CC(C)(COP(=O)(O)OP(=O)(O)OCC1OC(n2cnc3c(N)ncnc32)C(O)C1OP(=O)(O)O)C(O)C(=O)NCCC(=O)NCCSC(=O)CCC(=O)O` (stereo unspecified), the Tm shift (at 10 µM, NADP 100 µM) is 2.7 Celsius.

In the case of `NC(=O)c1ccc[n+](C2OC(COP(=O)(O)OP(=O)(O)OCC3OC(n4cnc5c(N)ncnc54)C(OP(=O)(O)O)C3O)C(O)C2O)c1` (stereo unspecified), the Tm shift reads like this: (at 40 µM) 5.7 Celsius; (measured here: second DSF experiment, at 40 µM, run 2, at 40 µM) 2.6 Celsius.

For `CC(C)(COP(=O)(O)OP(=O)(O)OCC1OC(n2cnc3c(N)ncnc32)C(O)C1OP(=O)(O)O)C(O)C(=O)NCCC(=O)NCCSC(=O)Cc1ccccc1` (stereo unspecified), under “at 10 µM, NADP 100 µM”, the Tm shift was 3.6 Celsius.

On to `C=CC1=C(C)/C(=C/c2[nH]c(Cc3[nH]c(/C=C4\NC(=O)C(C)=C4C=C)c(C)c3CCC(=O)O)c(CCC(=O)O)c2C)NC1=O`, for which the Tm shift (at 10 µM, NADP 100 µM) is 3.9 Celsius.

As for `COC(=O)[C@H](C)CO`, where the note is “at 10 µM, NADP 100 µM”, the Tm shift is 6.7 Celsius.
